Laboratory results reported in patent US8795705B2, “Dermatologic compositions comprising pyrrolidone-5-carboxylic acid and at least one entity chosen from citrulline, arginine and asparagine, and uses thereof in the treatment of atopic dermatitis” (Galderma Research & Development, priority 2007, dated 2014).
Structures can show the parent of a compound that is named as a salt.

Experiment: Assessment of hygroscopic properties: residual water weight of solutions as a function of time in a thermal container
Assay type: physicochemical
Details: 50° C., humidity 30%, each compound at 5% in water, after 120 minutes, versus water as negative control (FIG. 1)
Protocol: Each compound was dissolved in water (w/w) to obtain a 5% solution. To prepare a 5% two-amino acid solution, the L-arginine powder was dissolved directly in the 5% PCA sodium salt solution (w/w). To assess the hygroscopic properties of amino acids, we studied the residual water weight of different solutions as a function of time. We determined the weight of residual water in each solution after different times in an atmosphere in which temperature and humidity were controlled in a thermal container (Vötsch VC0018). The temperature used for our assays was initially set at 50° C. and later at 30° C. to approximate skin conditions more closely. Humidity was set at 30%. Using these parameters, we determined the weight of each solution before heating it and at different times during the heating. The heating lasted for 120 minutes at 50° C. and data was recorded from 45 to 120 minutes. At 30° C. the heating lasted for 135 minutes and data was recorded from 90 to 135 minutes. The residual weight expected at the end of the study which corresponds to the weight of the compound in the solution was calculated (for example, if the initial total weight for a 5% solution was 100 mg, the weight of the compound was 5 mg). The residual water weight of each solution was obtained by subtracting the expected weight of the compound from the total weight of the solution at different times. […]

Row | SMILES | percentage of residual water weight (evaporation of the water contained in the solutions)
1 | N=C(N)NCCC[C@H](N)C(=O)O [L-Arginine] | decreased the evaporation of the water
2 | O=C1CCC(C(=O)O)N1 (centres unmarked) [PCA Na, 2-Pyrrolidone-5-carboxylic acid sodium salt] | decreased the evaporation of the water
